One assay deals with ENL YEATS domain (Homo sapiens (Human), UniProt Q03111). Kind of assay: TR-FRET ENL Screening Assay. As to conditions: 6xHIS ENL YEATS domain binding to H3K9cr peptide. As to the method: Compounds of the invention were tested in a TR-FRET ENL Screening Assay. TR-FRET (time-resolved fluorescence energy transfer) can be used to quantify ENL YEATS domain binding to a crotonylated histone peptide (H3K9cr, aa1-20). Streptavidin-Europium (Eu) chelate binds the biotinylated peptide, while Anti-6×HIS ULight™ binds 6×HIS-ENL. When Eu chelate is excited at 320 nm, fluorescence resonance energy transfer (FRET) occurs if Eu and ULight are made proximal by ENL binding to the acyl-peptide.
Low control (LC) wells received 5 μL of assay buffer instead of ENL protein. […] The response at each compound concentration minus the LC value was converted to percent inhibition of the vehicle control group response (HC-LC).
For orientation: Time-resolved FRET reads energy transfer from a long-lived donor to a nearby acceptor.

Assay [1] has as its system MV4:11 (MLL-AF4 MLL) cells. Kind of assay: Cell viability assay (CellTiter-Glo), 12 days. Format: cell-based. The following applies: Homo sapiens, 288 h, MV4;11 cells, 12 day, read-out: CTG_MV4, 11 12 DAY_EC50. As to the method:
The assays were conducted over 12 days and the cells being split on days 4 and 8. […] Blank wells received cell culture medium. Plates were incubated for 4 days at 37° C. with 5% CO2. On days 4 and day 8 the cells were split and incubated for a further 4 days whilst an aliquot of cells were taken for the CTG readout. For the cell splitting, 270 nL of compounds or DMSO was added to a new 96 well cell culture plate to which 90 μL of medium plus 10 μL of cells from the original assay plate (after mixing) or 100 μL of medium (Blank wells) was added. This was repeated on day 8.
Cell viability was assessed using the CellTiter-Glo® homogeneous luminescent assay kit (Promega, G9243), according to the manufacturer's instructions. This quantifies ATP, which indicates the presence of metabolically active cells. […] The resulting data were analyzed as follows:
where vehicle are cells treated with 0.3% DMSO, Blank is culture medium. IC50 determinations were calculated by fitting the curve using XLfit (v5.3.1.3): Y=Bottom+(Top−Bottom)/(1+10^((LogIC50−X)*HillSlope)).

As a reminder, the pIC50 is the negative decadic logarithm of the IC50, by convention in mol/L.

pEC50, pIC50: −log10 of the molar value.

Chain of ENL YEATS domain (Q03111 1-138): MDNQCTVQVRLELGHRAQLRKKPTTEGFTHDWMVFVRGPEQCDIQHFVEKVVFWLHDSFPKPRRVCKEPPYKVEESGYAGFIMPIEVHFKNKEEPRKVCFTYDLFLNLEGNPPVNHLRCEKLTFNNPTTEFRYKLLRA

For the molecule `Cc1ccc2cc(C(=O)Nc3cc4[nH]c([C@H]5CCCN5C)cc4cn3)ccc2n1` [Example 66], the negative-log IC50 (pIC50) on ENL YEATS domain is 7.54. Further, in assay [1], the pEC50 is 5.79.

Molecule `Cc1cnn2cc(C(=O)Nc3cc4[nH]c([C@H]5CCCN5C)cc4cn3)ccc12` [Example 34] gave a pIC50 at ENL YEATS domain of 7.32. The pEC50 in assay [1] was 6.24.

Regarding `CNc1nn(C)c2cc(C(=O)Nc3cc4[nH]c([C@H]5CCCN5C)cc4cn3)ccc12` [Example 50], the negative logarithm of the IC50 (pIC50) at ENL YEATS domain was 6.99. Also, in assay [1], the pEC50 was 5.63.

For the molecule `CN1C(=O)Cc2ccc(C(=O)Nc3cc4[nH]c([C@H]5CCCCN5C)cc4cn3)cc21` [Example 94], the pIC50 on ENL YEATS domain is 6.66. Moreover, in assay [1], the pEC50 was 6.43.

Take `CN1CCCC[C@@H]1c1cc2cnc(NC(=O)c3ccc4c(F)nn(C)c4c3)cc2[nH]1` [Example 81, (R)-3-fluoro-1-methyl-N-(2-(1-methylpiperidin-2-yl)-1H-pyrrolo[3,2-c]pyridin-6-yl)-1H-indazole-6-carboxamide]: on ENL YEATS domain, the pIC50 was 7.29. In addition, the pEC50 in assay [1] is 6.53.

`CN1CCC[C@@H]1c1cc2cnc(NC(=O)c3ccc4[nH]nc(F)c4c3)cc2[nH]1` [Example 46]: the pIC50 at ENL YEATS domain was 7.21. For the same molecule, the pEC50 in assay [1] was 6.59.

Turning to `Cc1nn(C)c(=O)c2cc(C(=O)Nc3cc4[nH]c([C@H]5CCCCN5C)cc4cn3)ccc12` [Example 103, (R)-1,3-dimethyl-N-(2-(1-methylpiperidin-2-yl)-1H-pyrrolo[3,2-c]pyridin-6-yl)-4-oxo-3,4-dihydrophthalazine-6-carboxamide], at ENL YEATS domain, the pIC50 is 6.83. Further, the pEC50 in assay [1] is 6.53.

On ENL YEATS domain, `Cc1nccc2cc(C(=O)Nc3cc4[nH]c([C@H]5CCCN5C)cc4cn3)ccc12` [Example 65] gave a negative-log IC50 (pIC50) of 7.74. Besides, the pEC50 in assay [1] is 7.27.

With `CN1CCCC[C@@H]1c1cc2cnc(NC(=O)c3ccc4ncn(C)c(=O)c4c3)cc2[nH]1` [Example 102, (R)-3-methyl-N-(2-(1-methylpiperidin-2-yl)-1H-pyrrolo[3,2-c]pyridin-6-yl)-4-oxo-3,4-dihydroquinazoline-6-carboxamide], the negative logarithm of the IC50 (pIC50) on ENL YEATS domain is 6.70. Further, in assay [1], the pEC50 was 6.54.

Turning to `Cc1nnc(C)c2cc(C(=O)Nc3cc4[nH]c([C@H]5CCCCN5C)cc4cn3)ccc12` [Example 93], the pIC50 on ENL YEATS domain was 7.12. Further, the pEC50 in assay [1] was 6.84.

The values are drawn from US20250136592A1, “C-LINKED INHIBITORS OF ENL/AF9 YEATS” (Bridge Medicines, priority 2021, published 2025).
